Experimental data as given in ChEMBL document CHEMBL4825740, “Novel Histone Deacetylase Inhibitors for Treating HIV Infection” (ACS Med Chem Lett, 2021).

Legend:
[1] = molecular target: Histone deacetylase 1 (Homo sapiens, UniProt Q13547); assay: Inhibition of human recombinant FLAG-tagged HDAC1 expressed in HEK293F cells incubated for 30 mins by Fluor De Lys assay; format: cell-based
[2] = molecular target: Histone deacetylase 2 (Homo sapiens, UniProt Q92769); assay: Inhibition of human recombinant FLAG-tagged HDAC2 expressed in Sf9 cells incubated for 30 mins by Fluor De Lys assay
Histone deacetylase 2, sequence (Q92769 whole entry): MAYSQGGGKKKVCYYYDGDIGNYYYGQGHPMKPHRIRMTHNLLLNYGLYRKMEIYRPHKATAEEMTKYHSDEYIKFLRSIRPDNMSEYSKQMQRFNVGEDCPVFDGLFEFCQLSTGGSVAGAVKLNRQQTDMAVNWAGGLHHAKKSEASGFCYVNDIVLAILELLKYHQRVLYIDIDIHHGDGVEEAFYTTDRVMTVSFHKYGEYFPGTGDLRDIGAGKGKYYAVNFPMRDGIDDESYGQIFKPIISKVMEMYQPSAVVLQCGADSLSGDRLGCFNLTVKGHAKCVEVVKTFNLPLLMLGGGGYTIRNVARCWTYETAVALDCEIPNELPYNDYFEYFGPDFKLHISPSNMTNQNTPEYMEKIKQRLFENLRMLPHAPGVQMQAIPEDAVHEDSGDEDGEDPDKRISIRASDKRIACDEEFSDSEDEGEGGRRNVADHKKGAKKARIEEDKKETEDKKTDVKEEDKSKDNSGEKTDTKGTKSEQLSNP

[3] = molecular target: Histone deacetylase 3 (Homo sapiens, UniProt O15379); assay: Inhibition of human recombinant FLAG-tagged HDAC3 expressed in HEK293F cells incubated for 30 mins by Fluor De Lys assay; format: cell-based
Histone deacetylase 3, sequence (O15379 whole entry): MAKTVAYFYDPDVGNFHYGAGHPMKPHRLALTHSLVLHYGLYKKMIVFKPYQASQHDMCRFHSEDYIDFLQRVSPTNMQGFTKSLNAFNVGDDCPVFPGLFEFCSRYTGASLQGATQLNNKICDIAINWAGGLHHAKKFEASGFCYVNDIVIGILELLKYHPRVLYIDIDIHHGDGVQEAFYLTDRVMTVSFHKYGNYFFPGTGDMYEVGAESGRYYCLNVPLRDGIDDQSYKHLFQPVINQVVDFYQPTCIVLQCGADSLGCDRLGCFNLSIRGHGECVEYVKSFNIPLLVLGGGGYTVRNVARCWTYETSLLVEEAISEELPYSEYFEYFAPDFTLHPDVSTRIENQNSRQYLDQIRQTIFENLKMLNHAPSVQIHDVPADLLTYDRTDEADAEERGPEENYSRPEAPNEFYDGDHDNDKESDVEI

Histone deacetylase 1, sequence (Q13547 whole entry): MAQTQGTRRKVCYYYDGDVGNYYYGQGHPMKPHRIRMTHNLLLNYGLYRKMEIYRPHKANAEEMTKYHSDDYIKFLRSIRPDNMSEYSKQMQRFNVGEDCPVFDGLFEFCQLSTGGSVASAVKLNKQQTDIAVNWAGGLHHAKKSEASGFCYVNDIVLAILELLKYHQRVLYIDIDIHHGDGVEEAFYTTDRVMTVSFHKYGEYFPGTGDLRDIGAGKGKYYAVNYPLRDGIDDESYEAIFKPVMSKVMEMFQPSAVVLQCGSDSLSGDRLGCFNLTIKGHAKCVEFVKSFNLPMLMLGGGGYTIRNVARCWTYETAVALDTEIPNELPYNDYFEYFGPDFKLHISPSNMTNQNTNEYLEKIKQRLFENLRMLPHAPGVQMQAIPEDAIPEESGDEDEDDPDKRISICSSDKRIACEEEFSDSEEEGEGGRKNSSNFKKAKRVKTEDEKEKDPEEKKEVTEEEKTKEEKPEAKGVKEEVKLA

Work on `CCC(=O)CCCCC[C@H](NC(=O)[C@H]1CC12CCN(C)CC2)c1ncc(-c2cc3ccc(N4CCCC4)nc3cc2OC)[nH]1` yielded an IC50 [1] of 0.32 nM and an IC50 [2] of 2 nM.
Compound `CCC(=O)CCCCC[C@H](NC(=O)[C@H]1CC12CCN(CC)CC2)c1ncc(-c2cc3cccnc3cc2OC)o1` has an IC50 [1] of under 1.5 nM and an IC50 [3] of under 1.5 nM.
